Assay results reported in patent US9643916B2, “Low molecular weight cationic lipids for oligonucleotide delivery” (SIRNA THERAPEUTICS, INC., priority 2010, dated 2017).

What was measured:
[1] = Rat in vivo toxicity (serum ALT and AST); conditions: Sprague-Dawley female rats, serum 24 hours after LNP dosing; compared with RDV containing octyl-CLinDMA; FIG. 3
Method: (§1) Six hours post dose, food is removed from the cages. Animal necropsy is performed 24 hours after LNP dosing. Rats are anesthetized under isoflurane for 5 minutes, then maintained under anesthesia by placing them in nose cones continuing the delivery of isoflurane until ex-sanguination is completed. Blood is collected from the vena cava using a 23 gauge butterfly venipuncture set and aliquoted to serum separator vacutainers for serum chemistry analysis. Punches of the excised caudate liver lobe are taken and placed in RNALater (Ambion) for mRNA analysis. Preserved liver tissue was homogenized and total RNA isolated using a Qiagen bead mill and the Qiagen miRNA-Easy RNA isolation kit following the manufacturer's instructions. Liver ApoB mRNA levels were determined by quantitative RT-PCR. Message was amplified from purified RNA utilizing a rat ApoB commercial probe set (Applied Biosystems Cat # RN01499054_m1). The PCR reaction was performed on an ABI 7500 instrument with a 96-well Fast Block. The ApoB mRNA level is normalized to the housekeeping PPIB (NM 011149) mRNA. PPIB mRNA levels were determined by RT-PCR using a commercial probe set (Applied Biosystems Cat. No. Mm00478295_m1). Results are expressed as a ratio of ApoB mRNA/PPIB mRNA. All mRNA data is expressed relative to the PBS control dose. […]

[2] = system: mRNA transcript for the ApoB gene; test: Rat in vivo evaluation of efficacy (liver ApoB mRNA by quantitative RT-PCR); conditions: Sprague-Dawley female rats, ApoB siRNA RDV tail vein injected, necropsy 24 hours after dosing; compared with RDV containing octyl-CLinDMA; FIG. 2
Method: as §1

[3] = system: mRNA transcript for the firefly (Photinus pyralis) luciferase gene; test: Mouse in vivo evaluation of efficacy (luciferase mouse model, liver luminescence by IVIS imaging); conditions: LSL-Luc transgenic mice, Luc siRNA RDVs tail vein injected, 0.3 to 3 mg/kg siRNA, imaged 48 hours post dose; compared with RDV containing octyl-CLinDMA (OCD); FIG. 1
Method: LNPs utilizing Compounds 1-2, in the nominal compositions described immediately above, were evaluated for in vivo efficacy and induction of inflammatory cytokines in a luciferase mouse model. The siRNA targets the mRNA transcript for the firefly (Photinus pyralis) luciferase gene (Accession #M15077). […] The in vivo luciferase model employs a transgenic mouse in which the firefly luciferase coding sequence is present in all cells. ROSA26-LoxP-Stop-LoxP-Luc (LSL-Luc) transgenic mice licensed from the Dana Farber Cancer Institute are induced to express the Luciferase gene by first removing the LSL sequence with a recombinant Ad-Cre virus (Vector Biolabs). Due to the organo-tropic nature of the virus, expression is limited to the liver when delivered via tail vein injection. Luciferase expression levels in liver are quantitated by measuring light output, using an IVIS imager (Xenogen) following administration of the luciferin substrate (Caliper Life Sciences). Pre-dose luminescence levels are measured prior to administration of the RDVs. Luciferin in PBS (15 mg/mL) is intraperitoneally (IP) injected in a volume of 150 μL. […] In vivo efficacy results are expressed as % inhibition of luminescence relative to pre-dose luminescence levels. Plasma cytokine levels were determined using the SearchLight multiplexed cytokine chemiluminescent array (Pierce/Thermo). […]

CCCCC/C=C\C/C=C\CCCCCCCCOC[C@H](COCCCCCCCC)N(C)C [Compound 1, S-N,N-dimethyl-1-[(9Z,12Z)-octadeca-9,12-dien-1-yloxy]-3-(octyloxy)propan-2-amine]
Elevations in LFTs (ALT/AST) [1]: lower elevations in LFTs (ALT/AST) | In vivo efficacy, liver ApoB mRNA/PPIB mRNA relative to the PBS control dose [2]: Greater efficacy | In vivo efficacy, % inhibition of luminescence relative to pre-dose luminescence levels [3]: Greater efficacy
